We go through five compounds from patent USRE42890E1, “Furazanobenzimidazoles” (Basilea Pharmaceutica AG, priority 2003, dated 2011).

In one test the test system is Jurkat. Put plainly: MTS proliferation assay, Jurkat. In kind it is cell-based, human. Particulars: 72 h incubation, read-out: MTS proliferation assay IC 50 Jurkat. Put shortly:
(§1)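 Proliferation: RPMI-1640/FCS complete medium, 37 °C, 7.5% CO2, cells plated 24 h pre-dose; compounds at 10, 3, 1, 0.3 μM final for 72 h; MTS, 492 nm.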
A general note: Tetrazolium assays rely on reduction of a dye to a coloured formazan, in cell work by metabolically active cells.

The next test has as its system MRC5. In words: MTS proliferation assay, MRC5. In kind it is cell-based. The following applies: MRC5, 72 h incubation; read-out: MTS proliferation assay IC 50 MRC5. Put shortly:
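Viability after 72 h compound exposure at 10, 3, 1 and 0.3 μM final was scored by MTS absorbance (492 nm, 3 h reagent incubation), with cells kept in RPMI-1640 containing 5% or 10% fetal calf serum.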

The test system of another test is HeLa. In words: MTS proliferation assay, HeLa. In kind it is cell-based, human. Particulars: 72 h incubation, read-out: MTS proliferation assay IC 50 HeLa. The method, boiled down: as §1
For test [1], the system named is adherent cells or suspension cells. Put plainly: Hoechst 33342 nuclear staining (fraction of apoptotic nuclei). In kind it is cell-based. Also noted: key: 0 relating to no activity; 1 relating to weak activity comprising less than 70% of the cells; score 2 relating to strong activity comprising more than 70% of the cells. The method, then:
Cell lines are cultured in RPMI-1640 tissue culture medium containing either 5% or 10% fetal calf serum, 0.05 mM 2-mercaptoethanol, 2 mM glutamine and penicillin/streptomycin 50 μg/ml (complete medium) (Sigma, Buchs, Switzerland). General growth conditions are 37° C. and 7.5% CO2.
This assay is performed in 96 well tissue culture plates. Appropriate number of cells (adherent cells: 3-5*10^3, suspension cells: 8-10*10^3) are being seeded out in 80 μl complete medium. Adherent cells are incubated for 24 h for proper spreading out before addition of test compounds while suspension cells are immediately treated with test compounds after seeding out. The test compounds are added in 20 μl complete medium containing max 5% DMSO. […] After 24 h or 48 h incubation at culture conditions, 10 μl medium containing Hoechst 33342 dye (Sigma B-2261) at 2-5 μg/ml are added to each well. The assay plates are then further incubated for 30 minutes and subsequently analyzed with a standard inverted fluorescence microscope.
The readout allows the determination of the fraction of apoptotic nuclei as well as other morphological criteria specific for apoptosis as a function of the treatment. The following scores are used: 0 relating to no activity, 1 relating to weak activity comprising less than 70% of the cells and score 2 relating to strong activity comprising more than 70% of the cells.

As for `Nc1nonc1-c1nc2ccccc2n1CC(=O)c1ccc(-c2ccccc2)cc1` [Example 26], the IC50 in the test with Jurkat, in the test on MRC5 and with HeLa was more than 1000 nM throughout. Besides, the “Hoechst 33342 nuclear staining score” value was found to be 0 in test [1] (H460, conc 0.01 μm); 0 in test [1] (H460, conc 0.1 μm); 0 in test [1] (H460, conc 1 μm); 0 in test [1] (HeLa, conc 0.01 μm); 0 in test [1] (HeLa, conc 0.1 μm); 0 in test [1] (HeLa, conc 1 μm). In addition, the “Hoechst 33342 nuclear staining score” value in test [1] (Jily, conc 0.01 μm) came to 0; in test [1] (Jily, conc 0.1 μm), 0; in test [1] (Jily, conc 1 μm), 0; in test [1] (Jurkat, conc 0.01 μm), 0; in test [1] (Jurkat, conc 0.1 μm), 0; in test [1] (Jurkat, conc 1 μm) it was 0. The “Hoechst 33342 nuclear staining score” value worked out at 0 in test [1] (MRC5, conc 0.01 μm); 0 in test [1] (MRC5, conc 0.1 μm); 0 in test [1] (MRC5, conc 1 μm); 0 in test [1] (PBLs, conc 0.01 μm); 0 in test [1] (PBLs, conc 0.1 μm); 0 in test [1] (PBLs, conc 1 μm).

For the compound `Nc1nonc1-c1nc2ccccc2n1CC(=O)c1ccccc1Cl` [Example 32], the IC50 was 100 to 1000 nM with Jurkat, more than 1000 nM in the test on MRC5 and 100 to 1000 nM in the test with HeLa. Moreover, the “Hoechst 33342 nuclear staining score” value worked out at 0 in test [1] (H460, conc 0.01 μm); 0 in test [1] (H460, conc 0.1 μm); 0 in test [1] (H460, conc 1 μm); 0 in test [1] (HeLa, conc 0.01 μm); 0 in test [1] (HeLa, conc 0.1 μm); 0 in test [1] (HeLa, conc 1 μm). Also, the “Hoechst 33342 nuclear staining score” value in test [1] (Jily, conc 0.01 μm) was 0; in test [1] (Jily, conc 0.1 μm), 0; in test [1] (Jily, conc 1 μm) it was 0; in test [1] (Jurkat, conc 0.01 μm) it was 0; in test [1] (Jurkat, conc 0.1 μm), 0; in test [1] (Jurkat, conc 1 μm), 2 (score 2 relating to strong activity comprising more than 70% of the cells). Also, the “Hoechst 33342 nuclear staining score” value in test [1] (MRC5, conc 0.01 μm) worked out at 0; in test [1] (MRC5, conc 0.1 μm), 0; in test [1] (MRC5, conc 1 μm), 0; in test [1] (PBLs, conc 0.01 μm) it was 0; in test [1] (PBLs, conc 0.1 μm), 0; in test [1] (PBLs, conc 1 μm), 0.

On to `CCN(CC)c1ccc(C(=O)Cn2c(-c3nonc3N)nc3ccccc32)cc1` [Example 39], for which the IC50 in the test with Jurkat, in the test with MRC5 and with HeLa was more than 1000 nM each time. In addition, the “Hoechst 33342 nuclear staining score” value in test [1] (H460, conc 0.01 μm) was 0; in test [1] (H460, conc 0.1 μm), 0; in test [1] (H460, conc 1 μm), 0; in test [1] (HeLa, conc 0.01 μm), 0; in test [1] (HeLa, conc 0.1 μm) it was 0; in test [1] (HeLa, conc 1 μm) it was 0. For the same compound, the “Hoechst 33342 nuclear staining score” value in test [1] (Jily, conc 0.01 μm) amounted to 0; in test [1] (Jily, conc 0.1 μm), 0; in test [1] (Jily, conc 1 μm), 0; in test [1] (Jurkat, conc 0.01 μm), 0; in test [1] (Jurkat, conc 0.1 μm) it was 0; in test [1] (Jurkat, conc 1 μm), 0. Moreover, the “Hoechst 33342 nuclear staining score” value was 0 in test [1] (MRC5, conc 0.01 μm); 0 in test [1] (MRC5, conc 0.1 μm); 0 in test [1] (MRC5, conc 1 μm); 0 in test [1] (PBLs, conc 0.01 μm); 0 in test [1] (PBLs, conc 0.1 μm); 0 in test [1] (PBLs, conc 1 μm).

`CC(=O)Nc1nonc1-c1nc2ccccc2n1CC(=O)c1ccccc1` [Example 40]: the IC50 was 100 to 1000 nM in the test on Jurkat, more than 1000 nM in the test with MRC5 and 100 to 1000 nM in the test with HeLa. The “Hoechst 33342 nuclear staining score” value in test [1] (H460, conc 0.01 μm) was 0; in test [1] (H460, conc 0.1 μm), 0; in test [1] (H460, conc 1 μm) it was 0; in test [1] (HeLa, conc 0.01 μm) it was 0; in test [1] (HeLa, conc 0.1 μm) it was 0; in test [1] (HeLa, conc 1 μm), 0. Besides, the “Hoechst 33342 nuclear staining score” value was 0 in test [1] (Jily, conc 0.01 μm); 0 in test [1] (Jily, conc 0.1 μm); 1 (1 relating to weak activity comprising less than 70% of the cells) in test [1] (Jily, conc 1 μm); 0 in test [1] (Jurkat, conc 0.01 μm); 0 in test [1] (Jurkat, conc 0.1 μm); 0 in test [1] (Jurkat, conc 1 μm). The “Hoechst 33342 nuclear staining score” value is 0 in test [1] (MRC5, conc 0.01 μm); 0 in test [1] (MRC5, conc 0.1 μm); 0 in test [1] (MRC5, conc 1 μm); 0 in test [1] (PBLs, conc 0.01 μm); 0 in test [1] (PBLs, conc 0.1 μm); 0 in test [1] (PBLs, conc 1 μm).

For `Cc1cc2nc(-c3nonc3N)n(CC(=O)c3ccc(Br)cc3)c2cc1C` [Example 109], the IC50 is 100 to 1000 nM with Jurkat, more than 1000 nM with MRC5 and more than 1000 nM with HeLa. The “Hoechst 33342 nuclear staining score” value is reported as 0 in test [1] (H460, conc 0.01 μm); 0 in test [1] (H460, conc 0.1 μm); 0 in test [1] (H460, conc 1 μm); 0 in test [1] (HeLa, conc 0.01 μm); 0 in test [1] (HeLa, conc 0.1 μm); 0 in test [1] (HeLa, conc 1 μm). Also, the “Hoechst 33342 nuclear staining score” value in test [1] (Jily, conc 0.01 μm) was determined as 0; in test [1] (Jily, conc 0.1 μm), 0; in test [1] (Jily, conc 1 μm), 0; in test [1] (Jurkat, conc 0.01 μm), 0; in test [1] (Jurkat, conc 0.1 μm), 0; in test [1] (Jurkat, conc 1 μm) it was 0. The “Hoechst 33342 nuclear staining score” value in test [1] (MRC5, conc 0.01 μm) is listed as 0; in test [1] (MRC5, conc 0.1 μm), 0; in test [1] (MRC5, conc 1 μm), 0; in test [1] (PBLs, conc 0.01 μm) it was 0; in test [1] (PBLs, conc 0.1 μm), 0; in test [1] (PBLs, conc 1 μm), 0.
